From patent publication US20130302442A1, “METHODS OF USING (4S,4AS,5AR,12AS)-4-DIMETHYLAMINO-3,10,12,12A-TETRAHYDROXY-7-[(METHOXY(METHYL)AMINO)-METHYL]-1,11-DIOXO-1,4,4A,5,5A,6,11,12A-OCTAHYDRO-NAPHTHACENE-2-CARBOXYLIC ACID AMIDE” (priority 2012, published 2013)
Converted amounts (≈) assume the structure as drawn. Read-outs that look alike come from different tables or passages of the source.

Tests used:
Assay type in all cases: cell-based
[1] = tested on: E. faecalis; assay: In vitro MIC testing, antibacterial spectrum of activity; conditions: E. faecalis [VSE] (31 isolates)
[2] = tested on: E. faecium; assay: as above; conditions: Enterococcus faecium; for MIC50: read-out: MIC50; for MIC90: read-out: MIC90
[3] = tested on: E. coli; assay: as above; conditions: Escherichia coli
[4] = tested on: P. mirabilis; assay: as above; conditions: Proteus mirabilis; P. mirabilis (30 isolates)
[5] = tested on: K. pneumoniae; assay: as above; conditions: K. pneumoniae (31 isolates); for MIC50 / MIC90: Klebsiella pneumoniae
[6] = tested on: E. cloacae; assay: as above; conditions: Enterobacter cloacae; E. cloacae (30 isolates)
[7] = tested on: P. aeruginosa; assay: as above; conditions: P. aeruginosa (11 isolates); for MIC50 / MIC90: Pseudomonas aeruginosa
[8] = tested on: Salmonella Spp.; assay: as above; conditions: for MIC50 / MIC90: Salmonella
[9] = tested on: Chlamydia trachomatis; assay: In vitro susceptibility testing of Chlamydia trachomatis in HEp-2 cells (first study); conditions: Chlamydia trachomatis, C. trachomatis strains, read-out: MIC at which 90% of the strains were inhibited (MIC90)
[10] = tested on: Chlamydia trachomatis; assay: Susceptibility testing (MIC, MBC) of 10 isolates of C. trachomatis in HEp-2 cells
[11] = tested on: Chlamydia pneumoniae; assay: Susceptibility testing (MIC, MBC) of 10 isolates of C. pneumoniae in HEp-2 cells

SMILES | MIC50 [3] [µg/mL] | MIC90 [3] [µg/mL] | MIC50 [4] [µg/mL] | MIC90 [4] [µg/mL] | MIC Range [5] [µg/mL] | MIC50 [5] [µg/mL] | MIC90 [5] [µg/mL] | MIC50 [6] [µg/mL] | MIC90 [6] [µg/mL] | MIC Range [7] [µg/mL] | MIC50 [7] [µg/mL] | MIC90 [7] [µg/mL] | MIC50 [8] [µg/mL] | MIC90 [8] [µg/mL] | further results
CC1(C)S[C@@H]2[C@H](NC(=O)[C@H](N)c3ccccc3)C(=O)N2[C@H]1C(=O)O [Ampicillin] | > 64 | > 64 | 4 (≈ 11.4 µM) | > 64 | >64 | > 64 | > 64 | 64 (≈ 183 µM) | > 64 | >64 | > 64 | > 64 | 1 (≈ 2.86 µM) | > 64 | MIC Range [1]: 0.5 to 8 µg/mL; MIC50 ([1]; Enterococcus faecalis, read-out: MIC50): 1 µg/mL (≈ 2.86 µM); MIC90 ([1]; Enterococcus faecalis, read-out: MIC90): 1 µg/mL (≈ 2.86 µM); MIC50 ([2]; E. faecium [VRE] (30 isolates)): > 64 µg/mL; MIC90 ([2]; E. faecium [VRE] (30 isolates)): > 64 µg/mL; MIC50 ([2]; E. faecium [VSE] (32 isolates)): 64 µg/mL (≈ 183 µM); MIC90 ([2]; E. faecium [VSE] (32 isolates)): > 64 µg/mL
CC[C@H]1OC(=O)[C@H](C)[C@@H](O[C@H]2C[C@@](C)(OC)[C@@H](O)[C@H](C)O2)[C@H](C)[C@@H](O[C@@H]2O[C@H](C)C[C@H](N(C)C)[C@H]2O)[C@](C)(O)C[C@@H](C)CN(C)[C@H](C)[C@@H](O)[C@]1(C)O [Azithromycin] |  |  |  |  |  |  |  |  |  |  |  |  |  |  | MIC90 [9]: 0.015 µg/mL (≈ 0.02 µM); MIC Range ([10]; 72 h): 0.003 to 0.03 µg/mL; MIC50 ([10]; Chlamydia trachomatis, 72 h): 0.0075 µg/mL (≈ 0.01 µM); MIC90 ([10]; Chlamydia trachomatis, 72 h): 0.015 µg/mL (≈ 0.02 µM); MBC ([10]; Chlamydia trachomatis, after passage, read-out: MBC 90%): 0.015 µg/mL (≈ 0.02 µM); MBC Range ([10]; after passage): 0.007 to 0.03 µg/mL; MIC Range ([11]; 72 h): 0.03 to 0.0625 µg/mL; MIC50 ([11]; Chlamydia pneumoniae, 72 h): 0.0625 µg/mL (≈ 0.0834 µM); MIC90 ([11]; Chlamydia pneumoniae, 72 h): 0.0625 µg/mL (≈ 0.0834 µM); MBC ([11]; Chlamydia pneumoniae, after passage, read-out: MBC 90%): 0.25 µg/mL (≈ 0.334 µM); MBC 90% ([11]; after passage): 0.25 µg/mL (≈ 0.334 µM); MBC Range ([11]; after passage): 0.0625 to 0.25 µg/mL
CC(=O)OCC1=C(C(=O)O)N2C(=O)[C@@H](NC(=O)Cc3cccs3)[C@H]2SC1 [Cephalothin] |  | > 64 | 8 (≈ 20.2 µM) | > 64 | >64 | > 64 | > 64 | > 64 | > 64 | >64 | > 64 | > 64 | 2 (≈ 5.04 µM) | 16 (≈ 40.4 µM) | 
O=C(O)c1cn(C2CC2)c2cc(N3CCNCC3)c(F)cc2c1=O [Ciprofloxacin] | 0.015 (≈ 0.0453 µM) | > 2 | > 2 | > 2 |  | > 2 | > 2 |  |  |  | > 2 | > 2 | 0.015 (≈ 0.0453 µM) | 0.03 (≈ 0.0905 µM) | MIC Range ([8]; Salmonella Spp. (35 isolates)): 0.015 to 0.25 µg/mL
